Experimental data taken from patent US9663513B2, “Pyrimidine PDE10 inhibitors” (Merck Sharp & Dohme Corp., priority 2012, dated 2017).

biological target: human PDE10A2 (Homo sapiens (Human), UniProt Q9Y233); experiment: PDE10 fluorescence polarization (IMAP FP) inhibition assay; assay type: biochemical; conditions: human PDE10A2 from transfected AD293 cells; FAM-labeled cAMP 50 nM; apparent inhibition constant; read-out: PDE10A Ki
Summary of the method: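 Cytoplasmic lysate of AD293 cells transiently expressing human PDE10A2 (enzyme level giving 20% conversion) incubated with 50 nM FAM-cAMP in pH 7.2 Tris/MgCl2 buffer, 30 min at room temperature. IMAP binding solution added, FP read after ≥1 h; 10-point 3-fold compound titrations fitted to a four-parameter equation.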

human PDE10A2, sequence (Q9Y233 267-1055): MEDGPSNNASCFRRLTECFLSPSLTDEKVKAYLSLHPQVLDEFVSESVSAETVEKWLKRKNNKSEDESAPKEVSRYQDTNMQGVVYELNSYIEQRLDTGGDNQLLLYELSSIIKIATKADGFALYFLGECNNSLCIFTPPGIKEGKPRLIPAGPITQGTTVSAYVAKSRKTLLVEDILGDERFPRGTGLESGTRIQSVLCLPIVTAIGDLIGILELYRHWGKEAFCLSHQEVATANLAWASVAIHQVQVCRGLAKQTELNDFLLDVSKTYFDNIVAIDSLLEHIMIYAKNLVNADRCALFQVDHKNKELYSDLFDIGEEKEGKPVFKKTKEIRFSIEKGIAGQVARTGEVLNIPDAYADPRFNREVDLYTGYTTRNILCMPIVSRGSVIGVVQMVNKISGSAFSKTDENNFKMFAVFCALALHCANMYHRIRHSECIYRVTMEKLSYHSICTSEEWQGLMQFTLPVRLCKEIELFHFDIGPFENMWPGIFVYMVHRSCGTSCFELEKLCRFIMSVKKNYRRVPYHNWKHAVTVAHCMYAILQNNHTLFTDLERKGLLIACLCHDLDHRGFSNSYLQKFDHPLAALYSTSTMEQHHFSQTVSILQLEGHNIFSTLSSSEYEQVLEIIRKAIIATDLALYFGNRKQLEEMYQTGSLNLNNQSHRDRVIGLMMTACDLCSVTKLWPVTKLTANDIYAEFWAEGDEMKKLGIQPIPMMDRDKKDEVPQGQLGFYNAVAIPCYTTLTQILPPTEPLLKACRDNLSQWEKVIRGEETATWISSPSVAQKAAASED

Ki [nM]	Compound
2.15	Cc1ncc(-c2ccc(C(C)(C)O)nc2C)c(OC[C@H]2C[C@@H]2c2ccccn2)n1 [Example 119, 2-(6-methyl-5-(2-methyl-4-(((1S,2S)-2-(pyridin-2-yl)cyclopropyl)methoxy)pyrimidin-5-yl)pyridin-2-yl)propan-2-ol]
4.43	Cc1ccc([C@H]2C[C@@H]2COc2nc(C)ncc2-c2c(C)cccc2C)nc1 [Example 11, 5-(2,6-dimethylphenyl)-2-methyl-4-(((1S,2S)-2-(5-methylpyridin-2-yl)cyclopropyl)methoxy)pyrimidine]
1.06	COc1ccc([C@H]2C[C@@H]2COc2nc(C)ncc2-c2ccc(C(=O)NCCO)cc2)nc1 [Example 107, N-(2-hydroxyethyl)-4-(4-(((1S,2S)-2-(5-methoxypyridin-2-yl)cyclopropyl)methoxy)-2-methylpyrimidin-5-yl)benzamide]
0.14	Cc1ccc([C@H]2C[C@@H]2COc2nc(C)ncc2-c2ccc(C(C)O)nc2)nc1 (stereo partly drawn) [Example 149, 1-(5-(2-methyl-4-(((1S,2S)-2-(5-methylpyridin-2-yl)cyclopropyl)methoxy)pyrimidin-5-yl)pyridin-2-yl)ethanol]
2.68	COc1ccc([C@H]2C[C@@H]2COc2nc(C)ncc2-c2ccc(C(=O)O)nn2)nc1 [Example 99, 6-(4-(((1S,2S)-2-(5-methoxypyridin-2-yl)cyclopropyl)methoxy)-2-methylpyrimidin-5-yl)pyridazine-3-carboxylic acid]
1.48	Cc1ccc([C@H]2C[C@@H]2COc2nc(C)ncc2-c2cn(C)nc2C(O)C(F)F)nc1 (stereo partly drawn) [Example 170, 2,2-difluoro-1-(1-methyl-4-(2-methyl-4-(((1S,2S)-2-(5-methylpyridin-2-yl)cyclopropyl)methoxy)pyrimidin-5-yl)-1H-pyrazol-3-yl)ethanol]
0.56	Cc1cccc([C@H]2C[C@@H]2COc2nc(C)ncc2-c2cn(C)nc2C(C)O)n1 (stereo partly drawn) [Example 158, 1-(1-methyl-4-(2-methyl-4-(((1S,2S)-2-(6-methylpyridin-2-yl)cyclopropyl)methoxy)pyrimidin-5-yl)-1H-pyrazol-3-yl)ethanol]
5.71	Cc1ccc([C@H]2C[C@@H]2COc2nc(C)ncc2-c2ccc(C(F)(F)F)cc2)nc1 [Example 10, 2-methyl-4-(((1S,2S)-2-(5-methylpyridin-2-yl)cyclopropyl)methoxy)-5-(4-(trifluoromethyl)phenyl)pyrimidine]
0.06	Cc1ccc([C@H]2C[C@@H]2COc2nc(C)ncc2-c2ccc(C(C)(C)O)nc2)nc1 (single isomer, unassigned) [Example 46]
0.47	COc1cnccc1-c1cnc(C)nc1OC[C@H]1C[C@@H]1c1ccc(C)cn1 [Example 150, 5-(3-methoxypyridin-4-yl)-2-methyl-4-(((1S,2S)-2-(5-methylpyridin-2-yl)cyclopropyl)methoxy)pyrimidine]
0.94	COc1ccc([C@H]2C[C@@H]2COc2nc(C)ncc2-c2ccc(C#N)n2C)nc1 [Example 109, 5-(4-(((1S,2S)-2-(5-methoxypyridin-2-yl)cyclopropyl)methoxy)-2-methylpyrimidin-5-yl)-1-methyl-1H-pyrrole-2-carbonitrile]
32.9	COc1ccc([C@H]2C[C@@H]2COc2nc(C)ncc2-c2nnn(C(F)F)n2)nc1 [Example 237, 5-(2-(difluoromethyl)-2H-tetrazol-5-yl)-4-(((1S,2S)-2-(5-methoxypyridin-2-yl)cyclopropyl)methoxy)-2-methylpyrimidine]
0.03	Cc1ncc(-c2ccc(CO)cc2)c(OC[C@H]2C[C@@H]2c2ccc3ccccc3n2)n1 (single isomer, unassigned) [Example 38]
0.4	Cc1ccc([C@H]2C[C@@H]2COc2nc(C)ncc2-c2ccncc2C)nc1 [Example 147, 2-methyl-4-(((1S,2S)-2-(5-methylpyridin-2-yl)cyclopropyl)methoxy)-5-(3-methylpyridin-4-yl)pyrimidine]
2.43	CCn1cc(-c2cnc(C)nc2OC[C@H]2C[C@@H]2c2ccc(OC)cn2)nn1 [Example 247, 5-(1-ethyl-1H-1,2,3-triazol-4-yl)-4-(((1S,2S)-2-(5-methoxypyridin-2-yl)cyclopropyl)methoxy)-2-methylpyrimidine]
7.08	Cc1ncc([C@@H]2CCC3(C[C@H]2O)OCCO3)c(OC[C@H]2C[C@@H]2c2ccc3ccccc3n2)n1 [Example 205, (7R,8S)-8-(2-methyl-4-(((1S,2S)-2-(quinolin-2-yl)cyclopropyl)methoxy)pyrimidin-5-yl)-1,4-dioxaspiro[4.5]decan-7-ol]
2.62	COc1ccc([C@H]2C[C@@H]2COc2nc(C)ncc2-c2ccc([S+](C)[O-])nc2)nc1 (single isomer, unassigned) [Example 65]
0.01	Cc1ncc([C@H]2CC[C@H](O)CC2)c(OC[C@H]2C[C@H]2c2ccc3ccccc3n2)n1 [Example 192, Trans-4-(2-methyl-4-(((1S,2R)-2-(quinolin-2-yl)cyclopropyl)methoxy)pyrimidin-5-yl)cyclohexanol]

Ki [nM]	Compound
3.73	Cc1ccc([C@H]2C[C@@H]2COc2nc(C)ncc2C2CCC(=O)CC2)nc1 [Example 185, 4-(2-methyl-4-(((1S,2S)-2-(5-methylpyridin-2-yl)cyclopropyl)methoxy)pyrimidin-5-yl)cyclohexanone]
19.4	CCn1nnc(-c2cnc(C)nc2OC[C@H]2C[C@@H]2c2ccc(OC)cn2)n1 [Example 236, 5-(2-ethyl-2H-tetrazol-5-yl)-4-(((1S,2S)-2-(5-methoxypyridin-2-yl)cyclopropyl)methoxy)-2-methylpyrimidine]
1.61	COc1cccc([C@H]2C[C@@H]2COc2nc(C)ncc2C2CCC3(CC2)OCCO3)n1 [Example 200, 4-(((1S,2S)-2-(6-methoxypyridin-2-yl)cyclopropyl)methoxy)-2-methyl-5-(1,4-dioxaspiro[4.5]decan-8-yl)pyrimidine]
4.34	Cc1ccc([C@H]2C[C@@H]2COc2nc(C)ncc2-c2cnnc(Br)c2)nc1 [Example 59, 3-bromo-5-(2-methyl-4-(((1S,2S)-2-(5-methylpyridin-2-yl)cyclopropyl)methoxy)pyrimidin-5-yl)pyridazine]
9.43	COc1ccc([C@H]2C[C@@H]2COc2nc(C)ncc2-c2nn[nH]n2)nc1 [Example 234, 4-(((1S,2S)-2-(5-methoxypyridin-2-yl)cyclopropyl)methoxy)-2-methyl-5-(2H-tetrazol-5-yl)pyrimidine]
3.24	CCc1ccccc1-c1cnc(C)nc1OC[C@H]1C[C@@H]1c1ccc(C)cn1 [Example 8]
0.02	Cc1ncc(-c2ccncc2)c(OC[C@H]2C[C@@H]2c2ccc3ccccc3n2)n1 (single isomer, unassigned) [Example 26]
0.76	COc1ccc([C@H]2C[C@@H]2COc2nc(C)ncc2C2=CCOCC2)nc1 [Example 115, 5-(3,6-dihydro-2H-pyran-4-yl)-4-(((1S,2S)-2-(5-methoxypyridin-2-yl)cyclopropyl)methoxy)-2-methylpyrimidine]
9.74	COC(=O)c1cnc(-c2cnc(C)nc2OC[C@H]2C[C@@H]2c2ccc(OC)cn2)cn1 [Example 97, methyl 5-(4-(((1S,2S)-2-(5-methoxypyridin-2-yl)cyclopropyl)methoxy)-2-methylpyrimidin-5-yl)pyrazine-2-carboxylate]
0.48	COc1ccc([C@H]2C[C@@H]2COc2nc(C)ncc2C2=CC(=O)CC2)nc1 [Example 76, 3-(4-(((1S,2S)-2-(5-methoxypyridin-2-yl)cyclopropyl)methoxy)-2-methylpyrimidin-5-yl)cyclopent-2-enone]
29.9	COc1ccc([C@H]2C[C@@H]2COc2nc(C)ncc2-c2noc(CO)n2)nc1 [Example 256, (3-(4-(((1S,2S)-2-(5-methoxypyridin-2-yl)cyclopropyl)methoxy)-2-methylpyrimidin-5-yl)-1,2,4-oxadiazol-5-yl)methanol]
2.95	COc1ccc([C@H]2C[C@@H]2COc2nc(C)ncc2-c2ccc(S(C)(=O)=O)nc2)nc1 [Example 63, 4-(((1S,2S)-2-(5-methoxypyridin-2-yl)cyclopropyl)methoxy)-2-methyl-5-(6-(methylsulfonyl)pyridin-3-yl)pyrimidine]
6.86	Cc1ccc([C@H]2C[C@@H]2COc2nc(C)ncc2[C@H]2CC[C@](C)(O)CC2)nc1 [Example 213, (trans)1-Methyl-4-(2-methyl-4-(((1S,2S)-2-(5-methylpyridin-2-yl)cyclopropyl)methoxy)pyrimidin-5-yl)cyclohexanol]
10.4	C=Cc1cnc(C)nc1OC[C@H]1C[C@@H]1c1ccc(C)cn1 [Example 54, 2-methyl-4-(((1S,2S)-2-(5-methylpyridin-2-yl)cyclopropyl)methoxy)-5-vinylpyrimidine]
0.89	COc1ccc([C@H]2C[C@@H]2COc2nc(C)ncc2-c2cc(C#N)n(C)c2)nc1 [Example 113, 4-(4-(((1S,2S)-2-(5-methoxypyridin-2-yl)cyclopropyl)methoxy)-2-methylpyrimidin-5-yl)-1-methyl-1H-pyrrole-2-carbonitrile]
0.24	Cc1ccc([C@H]2C[C@@H]2COc2nc(C)ncc2-c2ccc(C(C)O)nc2)nc1 (stereo partly drawn) [Example 141, 1-(5-(2-methyl-4-(((1S,2S)-2-(5-methylpyridin-2-yl)cyclopropyl)methoxy)pyrimidin-5-yl)pyridin-2-yl)ethanol]
5.05	Cc1ncc(-c2ccc(C(C)O)cc2)c(OC[C@H]2C[C@@H]2c2ccccn2)n1 (stereo partly drawn) [Example 121, 1-(4-(2-methyl-4-(((1S,2S)-2-(pyridin-2-yl)cyclopropyl)methoxy)pyrimidin-5-yl)phenyl)ethanol]
10.3	COc1ccc([C@H]2C[C@@H]2COc2nc(C)ncc2-c2ccc(C)nn2)nc1 [Example 102, 3-(4-(((1S,2S)-2-(5-methoxypyridin-2-yl)cyclopropyl)methoxy)-2-methylpyrimidin-5-yl)-6-methylpyridazine]
